# Values joined by “and” are separate entries in the source; they are usually repeats but may differ in a detail not shown here. Equal entries are not always repeated. Where two headings read alike, the source gives them in different places.
# Assays:
# CDK2–cyclin A = biological target: T1, CDK2–cyclin A (Homo sapiens, UniProt P24941); assay: Lanthascreen kinase binding assay, CDK2; conditions: for Lanthascreen signal, sheet CDK2: raw replicates, experiment r36-r46
# T1 construct: purchased Thermo Fisher
# Protocol: (§1) Lanthascreen experiments were performed using commercially available reagents (Thermo Fisher) and according to the manufacturer’s instructions.
# HEK293T cells = assay: Drug sensitivity assay (CellTiter-Glo viability) with or without MLN4924 pretreatment; assay type: cell-based, human; conditions: for EC50: Homo sapiens, HEK-293T
# Method in brief: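 Cas9-expressing HEK293T cells receive either vehicle or 100 nM MLN4924, then compounds 2 h afterwards. After three days, luminescence-based viability is measured and calculated relative to DMSO.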
# CDK12–cyclin K and DDB1 = biological target: T2, CDK12–cyclin K and DDB1 (Homo sapiens, UniProt Q16531+Q9NYV4, K965R); assay: TR-FRET ternary complex formation assay (compound titration); assay type: binding
# T2 construct: His6–CDK12 (a.a. 713–1,052); full-length or beta-propeller B domain deletion (ΔBPB: a.a. 396–705 deleted) constructs of His6–DDB1ΔBPB, StrepII–Avi–DDB1, or His6–Spy–DDB1; made in house; host or cells: Trichoplusia ni High Five insect cells (baculovirus)
# T2 sequence (Q9NYV4 713-1052 K965R): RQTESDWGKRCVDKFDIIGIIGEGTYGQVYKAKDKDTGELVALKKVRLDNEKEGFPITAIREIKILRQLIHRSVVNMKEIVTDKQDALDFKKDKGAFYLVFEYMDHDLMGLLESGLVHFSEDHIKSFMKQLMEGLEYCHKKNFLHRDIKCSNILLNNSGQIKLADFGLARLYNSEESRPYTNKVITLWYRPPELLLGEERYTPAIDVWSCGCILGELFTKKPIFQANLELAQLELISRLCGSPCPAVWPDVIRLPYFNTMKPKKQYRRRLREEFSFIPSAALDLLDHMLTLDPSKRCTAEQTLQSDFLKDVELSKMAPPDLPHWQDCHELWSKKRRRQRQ
# T2 sequence (O75909 1-267 partner): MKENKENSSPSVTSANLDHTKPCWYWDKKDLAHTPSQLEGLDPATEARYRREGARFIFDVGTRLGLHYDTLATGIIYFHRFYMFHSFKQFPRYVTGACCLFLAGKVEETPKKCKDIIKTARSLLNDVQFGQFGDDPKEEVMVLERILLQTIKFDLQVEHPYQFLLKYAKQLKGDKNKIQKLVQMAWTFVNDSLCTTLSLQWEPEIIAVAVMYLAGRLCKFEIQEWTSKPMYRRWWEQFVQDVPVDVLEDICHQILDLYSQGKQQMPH
# T2 sequence (Q16531 whole entry): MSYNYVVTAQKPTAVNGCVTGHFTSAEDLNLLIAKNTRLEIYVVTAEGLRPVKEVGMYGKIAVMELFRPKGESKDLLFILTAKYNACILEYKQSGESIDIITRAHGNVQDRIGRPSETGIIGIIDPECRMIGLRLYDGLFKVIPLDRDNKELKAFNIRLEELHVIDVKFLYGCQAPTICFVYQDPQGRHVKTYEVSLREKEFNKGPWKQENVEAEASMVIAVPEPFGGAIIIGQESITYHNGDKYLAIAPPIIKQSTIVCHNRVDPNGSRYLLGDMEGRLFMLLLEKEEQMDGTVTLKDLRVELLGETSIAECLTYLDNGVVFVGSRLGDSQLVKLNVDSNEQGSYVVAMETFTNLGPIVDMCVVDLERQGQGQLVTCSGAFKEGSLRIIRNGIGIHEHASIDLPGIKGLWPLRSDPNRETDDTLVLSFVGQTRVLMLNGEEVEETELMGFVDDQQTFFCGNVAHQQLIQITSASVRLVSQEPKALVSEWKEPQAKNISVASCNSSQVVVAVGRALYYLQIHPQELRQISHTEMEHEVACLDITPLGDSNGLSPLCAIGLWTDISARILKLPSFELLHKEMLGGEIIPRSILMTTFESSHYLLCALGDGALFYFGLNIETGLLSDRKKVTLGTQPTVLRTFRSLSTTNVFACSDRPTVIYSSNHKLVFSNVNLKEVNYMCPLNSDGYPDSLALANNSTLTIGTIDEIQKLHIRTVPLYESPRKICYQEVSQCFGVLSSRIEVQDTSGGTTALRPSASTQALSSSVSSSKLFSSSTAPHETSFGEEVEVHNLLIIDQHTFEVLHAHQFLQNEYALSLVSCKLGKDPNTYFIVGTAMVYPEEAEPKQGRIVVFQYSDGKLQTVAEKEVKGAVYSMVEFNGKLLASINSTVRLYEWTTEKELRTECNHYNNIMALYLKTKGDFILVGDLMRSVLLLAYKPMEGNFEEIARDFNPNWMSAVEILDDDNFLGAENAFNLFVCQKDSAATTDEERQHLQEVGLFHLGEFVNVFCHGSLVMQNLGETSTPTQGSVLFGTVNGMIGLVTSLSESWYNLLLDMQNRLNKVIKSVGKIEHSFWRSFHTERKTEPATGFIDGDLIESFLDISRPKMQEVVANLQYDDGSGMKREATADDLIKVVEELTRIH
# Method in brief: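 A time delay of 70 μs preceded acquisition, limiting background fluorescence; the ratio of emission at 520 versus 490 nm gave the TR-FRET value.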
# CDK12–cyclin K = CDK12–cyclin K (Homo sapiens, UniProt Q9NYV4); assay: Lanthascreen kinase binding assay, CDK12; conditions: for Lanthascreen raw signal, sheet CDK12: series r37, duplicates
# CDK12–cyclin K, sequence (Q9NYV4 713-1052): as the sequence (Q9NYV4 713-1052 K965R) above, with R253K counted along it
# CDK12–cyclin K, sequence (O75909 1-267 partner limits assumed): as the sequence (O75909 1-267 partner) above
# Protocol: as §1
# [1] = test system: cyclin K–eGFP degradation reporter; assay: Cyclin K reporter stability analysis (dual-color cyclin K–eGFP reporter); assay type: cell-based, human; conditions: source data sheet correlations; read-out: DC50
# Method in brief: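 Readout: flow-cytometric eGFP/mCherry ratio (geometric means, round mCherry+ gate) relative to the average of three DMSO wells. Reporter line was HEK293T–Cas9, treated 5 h with compound.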
# CDK9–cyclin T = biological target: T3, CDK9–cyclin T (Homo sapiens, UniProt P50750); assay: Lanthascreen kinase binding assay, CDK9; conditions: for Lanthascreen TR-FRET signal (raw ratio), sheet CDK9: third titration set (r25), duplicates
# T3 construct: purchased Thermo Fisher
# T3 sequence (P50750 whole entry): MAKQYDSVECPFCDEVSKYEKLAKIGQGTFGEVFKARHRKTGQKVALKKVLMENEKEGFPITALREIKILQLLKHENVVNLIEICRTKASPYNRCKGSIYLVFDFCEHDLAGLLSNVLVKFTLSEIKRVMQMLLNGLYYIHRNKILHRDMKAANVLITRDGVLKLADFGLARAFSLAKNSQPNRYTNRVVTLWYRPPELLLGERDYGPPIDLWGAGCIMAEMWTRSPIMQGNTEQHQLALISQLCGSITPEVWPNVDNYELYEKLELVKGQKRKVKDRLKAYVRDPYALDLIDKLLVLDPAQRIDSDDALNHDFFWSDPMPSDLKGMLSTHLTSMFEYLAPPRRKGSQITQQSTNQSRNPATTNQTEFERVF
# T3 sequence (O60563 whole entry partner): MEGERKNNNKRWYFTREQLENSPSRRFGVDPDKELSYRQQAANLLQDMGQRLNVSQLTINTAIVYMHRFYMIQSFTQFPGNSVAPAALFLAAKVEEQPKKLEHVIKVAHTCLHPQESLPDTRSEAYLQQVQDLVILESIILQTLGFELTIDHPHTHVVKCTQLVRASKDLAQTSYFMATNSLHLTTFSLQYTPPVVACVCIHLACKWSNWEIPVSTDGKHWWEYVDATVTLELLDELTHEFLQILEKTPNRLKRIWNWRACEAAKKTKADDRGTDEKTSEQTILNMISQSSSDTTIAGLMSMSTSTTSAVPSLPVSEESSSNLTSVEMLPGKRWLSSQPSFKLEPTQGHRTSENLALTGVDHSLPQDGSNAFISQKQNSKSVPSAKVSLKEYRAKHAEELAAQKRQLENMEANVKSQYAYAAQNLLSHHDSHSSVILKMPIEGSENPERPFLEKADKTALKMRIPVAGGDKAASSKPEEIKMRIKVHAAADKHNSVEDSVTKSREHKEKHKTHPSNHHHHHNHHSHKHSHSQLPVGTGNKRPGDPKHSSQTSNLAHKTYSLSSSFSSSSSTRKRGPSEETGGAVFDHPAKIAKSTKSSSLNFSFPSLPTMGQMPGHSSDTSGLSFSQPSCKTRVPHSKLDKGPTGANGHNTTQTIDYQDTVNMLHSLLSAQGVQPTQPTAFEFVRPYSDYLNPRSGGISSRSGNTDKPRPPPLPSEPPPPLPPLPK
# Protocol: as §1
compound,measurement,setting,value
Cn1cc(-n2cnc3c(NCc4ccc(-c5ccccn5)cc4)nc(N4CCOCC4)nc32)cn1 [DS21],"Lanthascreen signal, sheet CDK2",CDK2–cyclin A; Compound 0.038147 nM,0.01393 and 0.01328
same,"Lanthascreen signal, sheet CDK2",CDK2–cyclin A; Compound 0.152588 nM,0.01386 and 0.01382
same,"Lanthascreen signal, sheet CDK2",CDK2–cyclin A; Compound 0.610352 nM,0.01425 and 0.01382
same,"Lanthascreen signal, sheet CDK2",CDK2–cyclin A; Compound 9.76563 nM,0.01432 and 0.01375
same,"Lanthascreen signal, sheet CDK2",CDK2–cyclin A; Compound 39.0625 nM,0.01417 and 0.01371
same,"Lanthascreen signal, sheet CDK2",CDK2–cyclin A; Compound 156.25 nM,0.01414 and 0.0141
same,"Lanthascreen signal, sheet CDK2",CDK2–cyclin A; Compound 625 nM,0.01356 and 0.01358
same,"Lanthascreen signal, sheet CDK2",CDK2–cyclin A; Compound 2500 nM,0.0127 and 0.009084
same,"Lanthascreen signal, sheet CDK2",CDK2–cyclin A; Compound 10000 nM,0.01132 and 0.011
same,IC50,"CDK2–cyclin A; Lanthascreen, average, Extended Data Fig. 8, read-out: CDK2 IC50",> 10000 nM
same,IC50,"CDK2–cyclin A; Supplementary Table 2, read-out: Lanthascreen IC50 [nM] CDK2",> 10000 nM
same,EC50,"HEK293T cells; Supplementary Fig. 5, HEK293T, CellTiter Glo, 72h, pre-treatment with 100 nM MLN4924, read-out: Viability EC50, with MLN4924",4.86 µM
same,EC50,"HEK293T cells; Supplementary Table 2, HEK293T viability, 72 h, compound alone, read-out: Cellular assays EC50",4.94 µM
same,Toxicity rescue,"HEK293T cells; Supplementary Table 2, MLN4924-mediated cytotoxicity rescue, 10 µM used where n.d.",102%
same,TR-FRET signal at compound concentration 4.68 nM,"CDK12–cyclin K and DDB1; compound concentration 4.68 nM, raw replicate titration data",0.1432 and 0.1661
same,TR-FRET signal at compound concentration 21.6 nM,"CDK12–cyclin K and DDB1; compound concentration 21.6 nM, raw replicate titration data",0.2041 and 0.2174
same,TR-FRET signal at compound concentration 36 nM,"CDK12–cyclin K and DDB1; compound concentration 36 nM, raw replicate titration data",0.3026 and 0.3362
same,TR-FRET signal at compound concentration 79.2001 nM,"CDK12–cyclin K and DDB1; compound concentration 79.2001 nM, raw replicate titration data",0.4985 and 0.5183
same,TR-FRET signal at compound concentration 158.4 nM,"CDK12–cyclin K and DDB1; compound concentration 158.4 nM, raw replicate titration data",0.7975 and 0.8115
same,TR-FRET signal at compound concentration 309.6 nM,"CDK12–cyclin K and DDB1; compound concentration 309.6 nM, raw replicate titration data",1.104 and 1.124
same,TR-FRET signal at compound concentration 626.401 nM,"CDK12–cyclin K and DDB1; compound concentration 626.401 nM, raw replicate titration data",1.537 and 1.587
same,TR-FRET signal at compound concentration 1252.8 nM,"CDK12–cyclin K and DDB1; compound concentration 1252.8 nM, raw replicate titration data",1.789 and 1.917
same,TR-FRET signal at compound concentration 2448 nM,"CDK12–cyclin K and DDB1; compound concentration 2448 nM, raw replicate titration data",1.994 and 2.074
same,TR-FRET signal at compound concentration 9936.01 nM,"CDK12–cyclin K and DDB1; compound concentration 9936.01 nM, raw replicate titration data",2.1 and 2.149
same,TR-FRET signal at compound concentration 20016 nM,"CDK12–cyclin K and DDB1; compound concentration 20016 nM, raw replicate titration data",2.044 and 2.1355
same,"DDB1–CDK12 complex formation, result in words",CDK12–cyclin K and DDB1; in vitro TR-FRET,poorer glues
same,EC50,"CDK12–cyclin K and DDB1; sheet MOESM7, read-out: log TR-FRET EC50 (converted)",0.299 µM
same,EC50,"CDK12–cyclin K and DDB1; source data sheet correlations, read-out: TR-FRET EC50",0.299 µM
same,IC50,"CDK12–cyclin K; Supplementary Table 2, read-out: Lanthascreen IC50 [nM] CDK12",2860 nM
same,"Lanthascreen raw signal, sheet CDK12",CDK12–cyclin K; compound 0.038147 nM,0.01384 and 0.01435
same,"Lanthascreen raw signal, sheet CDK12",CDK12–cyclin K; compound 0.152588 nM,0.01397 and 0.0142
same,"Lanthascreen raw signal, sheet CDK12",CDK12–cyclin K; compound 0.610352 nM,0.015 and 0.01469
same,"Lanthascreen raw signal, sheet CDK12",CDK12–cyclin K; compound 9.76563 nM,0.01433 and 0.01471
same,"Lanthascreen raw signal, sheet CDK12",CDK12–cyclin K; compound 39.0625 nM,0.01481 and 0.01445
same,"Lanthascreen raw signal, sheet CDK12",CDK12–cyclin K; compound 156.25 nM,0.01408 and 0.01362
same,"Lanthascreen raw signal, sheet CDK12",CDK12–cyclin K; compound 625 nM,0.01314 and 0.0125
same,"Lanthascreen raw signal, sheet CDK12",CDK12–cyclin K; compound 2500 nM,0.01076 and 0.01056
same,"Lanthascreen raw signal, sheet CDK12",CDK12–cyclin K; compound 10000 nM,0.008221 and 0.008078
same,DC50,[1],3.12 µM
same,IC50,"CDK9–cyclin T; Supplementary Table 2, read-out: Lanthascreen IC50 [nM] CDK9",953 nM
same,"Lanthascreen TR-FRET signal (raw ratio), sheet CDK9",CDK9–cyclin T; compound 0.038147 nM,0.01926 and 0.02033
same,"Lanthascreen TR-FRET signal (raw ratio), sheet CDK9",CDK9–cyclin T; compound 0.152588 nM,0.01912 and 0.02064
same,"Lanthascreen TR-FRET signal (raw ratio), sheet CDK9",CDK9–cyclin T; compound 0.610352 nM,0.01926 and 0.02032
same,"Lanthascreen TR-FRET signal (raw ratio), sheet CDK9",CDK9–cyclin T; compound 9.76563 nM,0.01956 and 0.02095
same,"Lanthascreen TR-FRET signal (raw ratio), sheet CDK9",CDK9–cyclin T; compound 39.0625 nM,0.01859 and 0.0203
same,"Lanthascreen TR-FRET signal (raw ratio), sheet CDK9",CDK9–cyclin T; compound 156.25 nM,0.01696 and 0.01861
same,"Lanthascreen TR-FRET signal (raw ratio), sheet CDK9",CDK9–cyclin T; compound 625 nM,0.01333 and 0.0154
same,"Lanthascreen TR-FRET signal (raw ratio), sheet CDK9",CDK9–cyclin T; compound 2500 nM,0.009112 and 0.01043
same,"Lanthascreen TR-FRET signal (raw ratio), sheet CDK9",CDK9–cyclin T; compound 10000 nM,0.007018 and 0.007122

# Reference: article PMC10746543, “Design principles for cyclin K molecular glue degraders” (Nature Chemical Biology, 2023)
